Assay results published in patent US7611863B2, “Selective staining of biomembranes using voltage-sensitive dyes” (Max-Planck-Gesellschaft zur Foerderung der Wissenschaften …, priority 2004, dated 2009).

Experiments:
[1] = Dye-lipid binding by fluorescence lipid titration; assay type: physicochemical; settings: for average binding constant K to lipid membrane: POPC vesicles, Tris-NaCl buffer pH 8.1, 25° C., dye 0.5 μM; for binding constant to lipid membranes: fluorescence lipid titration, Example 2
Experimental: Dye-lipid binding. The binding of the dyes to lipid membranes was determined by fluorescence lipid titration^21 with large unilamellar vesicles (LUVs) made of 1-palmitoyl-2-oleoyl-phosphatidylcholine (POPC). The purity of the lipids was checked by 2-dimensional TLC^22. The vesicles were made by extrusion^23 in Tris-NaCl buffer (20 mM Tris, 100 mM NaCl, pH 8.1), using an extrusion apparatus and polycarbonate filters with 100 nm pore size (both Avestin Europe, Mannheim, Germany). Vesicle size was determined by quasielastic light scattering using an argon ion laser (Spectra-Physics, Darmstadt, Germany), a photomultiplier (Brookhaven Instruments, Vienna, Austria) and a correlator (ALV-5000, Langen, Germany). The lipid concentration was determined by a chromogenic enzyme assay (Biomerieux, Marcy I'Etoile, France). The standard deviation of three concentration measurements for every vesicle preparation was always below 4%. Vesicles were stored under argon at 4° C. in 15 ml Falcon Centrifuge Tubes (BD Labware Europe, Le Pont de Claix, France) and used within three days.
To measure dye binding constants, we prepared 1 mM solutions of the dyes 1-3 by ultrasonication in Ethanol (1) or Tris-NaCl buffer (2,3). […] In the same buffer, suspensions of POPC vesicles with concentrations ranging from 100 nM to 10 mM were prepared by dilution of stock solutions. Dye and lipid were pre-thermostatted to 25° C. […] The fluorescence emission recorded at 600 nm with excitation at 488 nm was used for the evaluation of the partition coefficients.
Dye binding to lipid. When styryl hemicyanines bind to lipid bilayers, their quantum yield of fluorescence is enhanced. […] We take advantage of that effect to examine the binding of Di-4-ASPP phosphate and Di-4-ASPP alcohol to lipid membranes by fluorescence titration^21. For comparison Di-4-ASPBS was also included in the investigation.
Dispersions of large lipid vesicles (Ø≈100 nm) were made from palmitoyl-oleoyl-phosphatidylcholine (POPC) with lipid concentrations ranging over five orders of magnitude. […] The fluorescence intensity was enhanced with increasing concentration of lipid for all three dyes. The enhancement was shifted to higher lipid concentrations in the order Di-4-ASPP alcohol, Di-4-ASPBS and Di-4-ASPP phosphate.
Binding. The dyes Di-10-phosphato-ASPBS (Di-10P-ASPBS) and Di-12-phosphato-ASPBS (Di-12P-ASPBS) as well as the corresponding products after enzymatic hydrolysis Di-10-hydroxy-ASPBS (Di-10A-ASPBS) and Di-12-hydroxy-ASPBS (Di-12A-ASPBS) were synthesized by organic chemical methods. Their binding to lipid membranes was tested by fluorescence lipid titration (cf. page 15, section dye binding to lipid). The binding constants amounted to 27 M^−1 (Di-10P-ASPBS), 250,000 M^−1 (Di-10A-ASPBS), 2100 M^−1 (Di-12P-ASPBS) and 3,000,000 M^−1 (Di-12P-ASPBS) (FIGS. 14 and 15 (center and right hand side)). The difference in binding constants between dye alcohol and dye phosphates (or dye precursors) therefore amounted to a factor of 10,000 for the pair Di-10P-ASPBS/Di-10A-ASPBS and to a factor of 1000 for the pair Di-12P-ASPBS/Di-12A-ASPBS. The binding curve for the more lipophilic pair Di-12P-ASPBS/Di-12A-ASPBS is shifted to […] lipid concentrations.

[2] = upon transfer from water to lecithin membranes; cited from earlier work
HEK 293 cells = assay: Staining of HEK 293 cells by activation of binding through soluble phosphatase; assay type: cell-based
Experimental: FIG. 12A to F: Staining of HEK 293 cells with a voltage sensitive dye by activation of binding through soluble phosphatase added to the incubation medium. HEK 293 cells (A, brightfield image) were incubated with the voltage sensitive fluorescent dye Di-8-phosphato-ASPBS (cf. FIG. 11, bottom) at a concentration of 19.6 μM. […] The images shown are optimized for contrast and intensity.

[3] = tested on: HEK 293 cells expressing fusion protein of plasma membrane anchor and PLAP; assay: Staining of HEK 293 cells through overexpressed membrane-bound phosphatase; assay type: cell-based
Text: FIG. 13A to C: Staining of transfected HEK 293 cells with a voltage sensitive dye by activation of binding through an overexpressed, membrane-bound phosphatase. HEK 293 cells were cotransfected with a vector coding for GFP and a vector coding for a fusion protein of a plasma membrane anchor and phosphatase from the human placenta. A. fluorescence image showing the GFP fluoresence of a transfected cell (excitation filter 450/50 nm, emission filter 510 nm longpass; dichroic mirror: 505 nm). B. The voltage sensitive fluorescent dye Di-8-phosphato-ASPBS (cf. FIG. 11, bottom) was added to the incubation medium. […] C. […] The images shown are optimized for contrast and intensity.
(§1) FIG. 16. Genetically Targeted Staining of HEK293 cells with 1 mM Di-10P-ASPBS. A mixture of stable clones either expressing the membrane-bound phosphatase construct or cytosolic GFP were cultured on the same dish. (A) From left to right: (i) Brightfield image of cells. (ii) Fluorescence image of cells showing cells expressing cytosolic GFP (excitation filter 450/50 nm, emission filter 510 nm, dichroic mirror 505 nm). (iii) Cells expressing phosphatase as obtained by subtraction of GFP expressing cells from image i. (iv) Fluorescence image of cells with filters exc. 535/50 nm, em. 610/75 nm; dichroic mirror 535 nm. The image is normalized to the same level as in row B. (v) autoleveled image iv, showing fluorescence crosstalk of GFP. (B) Enzyme induced staining of cells as measured with filter set exc. 535/50 nm, em. 610/75 nm; dichroic mirror 535 nm. The membrane fluorescence increases over time. (C). Inverted and contrast-enhanced fluorescence images corresponding to row B. (D) Difference images. The image A/iv was subtracted from the images in row B. The resulting images were inverted and contrast was enhanced.
as §1, with “17.” for “16.”, “200 nM Di-12P-ASPBS.” for “1 mM Di-10P-ASPBS.”, “difference” for “and contrast-enhanced fluorescence images corresponding to row B. (D) Difference”, “enhanced. (D) Contrast enhanced images of row C.” for “enhanced.”
Enzyme induced staining. The dye precursors Di-10P-ASPBS and Di-12P-ASPBS were used to effect enzyme induced staining on cells. To test whether the staining is selective, a mixture of two cell populations was cultured in the same dish. One of these stably expressed the phosphatase construct, while the other was stably expressing GFP as a negative marker.

[4] = tested on: Madine Darby Canine Kidney (MDCK) cells; assay: Enzyme induced staining of transiently transfected MDCK cells; assay type: cell-based
Experimental: FIG. 19. Genetically Targeted Staining of MDCK cells with Di-10P-ASPBS and Di-12P-ASPBS. (A) Cells were cotransfected with the membrane-bound phosphatase construct termed ArtPlasMA AP and H2B-GFP, a nucleus-localized transfection marker. Brightfield image and fluorescence images before (−1 sec) and after addition of 200 nM Di-10P-ASPBS. (B) Analogous to row A, but using 200 nM Di-12P-ASPBS. (C) Control experiment. Cells were transfected only with H2B-GFP and incubated with 200 nM Di-12P-ASPBS. Brightfield image and fluorescence images before (−1 sec) and after addition of dye (8 min). (D) Control experiment. Cells were cotransfected with the membrane-bound phosphatase construct termed ArtPlasMA AP and H2B-GFP and incubated with the dye Di-10A-ASPBS. Brightfield image and fluorescence image before (−1 sec) and after addition of dye (20 sec).
Two control experiments were performed: In the first control, cells were transfected only with the transfection marker H2B-GFP. […] In addition, no difference in staining intensity between transfected and untransfected cells can be discerned (FIG. 19C). In the second control experiment, cells were cotransfected with the phosphatase construct and the transfection marker.

[5] = cells cotransfected with ArtPlasMA AP and H2B-GFP, 200 nM

## CCCCN(CCCC)c1ccc(C=Cc2cc[n+](CCCCS(=O)(=O)[O-])cc2)cc1 [Di-4-ASPBS, Di-4-ASP butylsulfonate, reference compound]
[1]
  average binding constant K to lipid membrane: 7500 ± 440 M⁻¹
[1]; −RT ln(K/KA)
  increment of the binding energy Δ(ΔG) relative to the alcohol: 0.526 kcal/mol
[2]
  increase in fluorescence quantum yield: 36 fold

## CCCCN(CCCC)c1ccc(/C=C/c2cc[n+](CCCO)cc2)cc1.[Br-] [Di-4-ASPP alcohol, 1-[γ-hydroxypropyl]-trans-4-[p-(di-n-butylamino)styryl]-pyridinium bromide]
[1]
  average binding constant K to lipid membrane: 17920 ± 360 M⁻¹

## Di-8-phosphato-ASPBS
HEK 293 cells; 19.6 μM, 30 minutes, cell interior stained only slightly
  permeation of the cell plasma membrane: permeates the cell plasma membrane very slowly
HEK 293 cells; 19.6 μM, after 30 minutes, no enzyme
  membrane fluorescence before enzyme addition: no membrane fluorescence could be detected
HEK 293 cells; PLAP 0.18 DEA Units/ml, 15 sec to 6 min
  membrane fluorescence after addition of soluble PLAP: membrane fluorescence was activated and increased over time
[3]; transfected HEK 293 cell
  membrane fluorescence directly after dye addition: no membrane fluorescence was visible
  membrane staining after 5 min of incubation: the membrane of the transfected cell was clearly stained
[3]; untransfected HEK 293 cells incubated with the dye
  membrane fluorescence of untransfected control cells: did not show any membrane fluorescence

## Di-10-hydroxy-ASPBS [Di-10A-ASPBS]
[1]
  binding constant to lipid membranes: 250,000 M^−1
[4]; cotransfected with phosphatase construct and H2B-GFP
  staining by product dye, transfected versus untransfected cells: equally and unselectively stained

## Di-10-phosphato-ASPBS [Di-10P-ASPBS]
[1]
  binding constant to lipid membranes: 27 M⁻¹
[1]; pair precursor/product dye
  difference in binding constants between dye alcohol and dye phosphate (precursor): 10,000 factor
[3]; phosphatase clones and GFP clones in same dish, 1 mM Di-10P-ASPBS, 200 nM Di-12P-ASPBS
  enzyme induced membrane staining in mixed cell populations: allowed enzyme induced membrane staining
[4]; [5]
  localization of staining at beginning of experiment: staining is localized to the transfected cells at the beginning of the experiment
  localization of staining over several minutes: the produced dye diffuses to the surrounding, nontransfected cells
